Measurements taken from the supplement of paper PMC10307832.

Tests used:
Experiment in all cases: relative viability (nuclei count vs DMSO), 5 days (fraction); higher = more cells survive
BAY61-3606 + Foretinib = compound: COC1=C(C=C(C=C1)C2=CC3=NC=CN3C(=N2)NC4=C(C=CC=N4)C(=O)N)OC [BAY61-3606] + COc1cc2c(Oc3ccc(NC(=O)C4(C(=O)Nc5ccc(F)cc5)CC4)cc3F)ccnc2cc1OCCCN1CCOCC1 [Foretinib] (partner 0.25 µM)
Procedure, shortened: (§1)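 Relative viability is defined as nuclei in treated wells over nuclei in vehicle wells. Duplicate plates were run and medians reported. Lung cancer cell lines in 1536-well plates were dosed by pin tool one day after seeding, with one drug or with a fixed anchor-drug dose plus five library-drug doses (not always all listed) in √10 steps, and nuclei were counted after 5 days.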

BAY61-3606 + Pemetrexed = compound: COC1=C(C=C(C=C1)C2=CC3=NC=CN3C(=N2)NC4=C(C=CC=N4)C(=O)N)OC [BAY61-3606] + Nc1nc2[nH]cc(CCc3ccc(C(=O)N[C@@H](CCC(=O)O)C(=O)O)cc3)c2c(=O)[nH]1 [Pemetrexed] (partner 0.2 µM)
Procedure, shortened: as §1

Doxorubicin + Bortezomib = compound: COc1cccc2c1C(=O)c1c(O)c3c(c(O)c1C2=O)C[C@@](O)(C(=O)CO)C[C@@H]3O[C@H]1C[C@H](N)[C@H](O)[C@H](C)O1 [Doxorubicin] + CC(C)C[C@H](NC(=O)[C@H](Cc1ccccc1)NC(=O)c1cnccn1)B(O)O [Bortezomib] (partner 0.002 µM)
Procedure, shortened: as §1

Doxorubicin + Crizotinib = compound: COc1cccc2c1C(=O)c1c(O)c3c(c(O)c1C2=O)C[C@@](O)(C(=O)CO)C[C@@H]3O[C@H]1C[C@H](N)[C@H](O)[C@H](C)O1 [Doxorubicin] + C[C@@H](Oc1cc(-c2cnn(C3CCNCC3)c2)cnc1N)c1c(Cl)ccc(F)c1Cl [Crizotinib] (partner 1 µM)
Procedure, shortened: as §1

Cell Line: UMC-11
- relative viability (BAY61-3606 + Foretinib; first compound 0.02 µM): 1.23
- relative viability (BAY61-3606 + Foretinib; first compound 0.06325 µM): 1.12
- relative viability (BAY61-3606 + Foretinib; first compound 0.2 µM): 1.05
- relative viability (BAY61-3606 + Foretinib; first compound 0.6325 µM): 1.15
- relative viability (BAY61-3606 + Foretinib; first compound 2 µM): 1.02
- relative viability (BAY61-3606 + Pemetrexed; first compound 0.02 µM): 0.813
- relative viability (BAY61-3606 + Pemetrexed; first compound 0.06325 µM): 0.795
- relative viability (BAY61-3606 + Pemetrexed; first compound 0.2 µM): 0.789
- relative viability (BAY61-3606 + Pemetrexed; first compound 0.6325 µM): 0.781
- relative viability (BAY61-3606 + Pemetrexed; first compound 2 µM): 0.612
- relative viability (Doxorubicin + Bortezomib; first compound 0.001 µM): 0.667
- relative viability (Doxorubicin + Bortezomib; first compound 0.003162 µM): 0.543
- relative viability (Doxorubicin + Bortezomib; first compound 0.01 µM): 0.668
- relative viability (Doxorubicin + Bortezomib; first compound 0.03162 µM): 0.379
- relative viability (Doxorubicin + Bortezomib; first compound 0.1 µM): 0.436
- relative viability (Doxorubicin + Crizotinib; first compound 0.001 µM): 0.539
- relative viability (Doxorubicin + Crizotinib; first compound 0.003162 µM): 0.66
- relative viability (Doxorubicin + Crizotinib; first compound 0.01 µM): 0.648
- relative viability (Doxorubicin + Crizotinib; first compound 0.03162 µM): 0.309
- relative viability (Doxorubicin + Crizotinib; first compound 0.1 µM): 0.386
